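All cell lines were grown in 96-well plates and treated with compound for 48 hours. GI50 is the concentration that inhibits growth by half.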 The source made the active and inactive calls. No stated cut-off is given here; in the data, active = GI50 up to about 1.1 µM and inactive = higher.
Key:
Assay in all cases: NCI-60 cell line screen, 48 h
[1] = system: A549
[2] = system: COLO 205
[3] = system: HCT-116
[4] = system: Hs-578T
[5] = system: KM12
[6] = system: LOX IMVI
[7] = system: M14
[8] = system: NCI-H460
[9] = system: OVCAR-4
[10] = system: OVCAR-5
[11] = system: OVCAR-8
[12] = system: RXF 393
[13] = system: SF-539
[14] = system: T47D
[15] = system: UACC-257
[16] = system: HT-29
[17] = system: CCRF-CEM

SMILES | GI50 [1] | GI50 [2] | GI50 [3] | GI50 [4] | GI50 [5] | GI50 [6] | GI50 [7] | GI50 [8] | GI50 [9] | GI50 [10] | GI50 [11] | GI50 [12] | GI50 [13] | GI50 [14] | GI50 [15] | GI50 [16] | GI50 [17]
NS(=O)(=O)c1nnc(NC(=O)C23CC4CC(CC(C4)C2)C3)s1 | > 100 µM (inactive) | > 100 µM (inactive) | > 100 µM (inactive) | > 100 µM (inactive) | > 100 µM (inactive) | > 100 µM (inactive) | > 100 µM (inactive) | 60.1 µM (inactive) | 0.101 µM (active) | > 100 µM (inactive) | > 100 µM (inactive) | 61.7 µM (inactive) | > 100 µM (inactive) | 90.4 µM (inactive) | > 100 µM (inactive) |  | 
S=C(Nc1ccc2cn[nH]c2c1)Nc1ccc2cn[nH]c2c1 | 96.8 µM (inactive) | 44.8 µM (inactive) | 58.5 µM (inactive) | > 100 µM (inactive) | 53.7 µM (inactive) | 70 µM (inactive) | > 100 µM (inactive) | 43 µM (inactive) | > 100 µM (inactive) | 95.5 µM (inactive) | 72.3 µM (inactive) | > 100 µM (inactive) | > 100 µM (inactive) | 33.5 µM (inactive) | 96.6 µM (inactive) | 50 µM (inactive) | 
Clc1ccccc1C(Nc1ncccn1)Nc1ncccn1 | > 100 µM (inactive) | > 100 µM (inactive) | > 100 µM (inactive) | > 100 µM (inactive) | > 100 µM (inactive) | > 100 µM (inactive) | > 100 µM (inactive) | > 100 µM (inactive) | > 100 µM (inactive) | > 100 µM (inactive) | > 100 µM (inactive) | > 100 µM (inactive) | > 100 µM (inactive) | > 100 µM (inactive) | > 100 µM (inactive) | > 100 µM (inactive) | 
C[N+]1(C(CO)Cc2c[nH]c3ccccc23)Cc2ccccc2C1 (stereo unspecified) | 59.4 µM (inactive) | > 100 µM (inactive) | > 100 µM (inactive) | > 100 µM (inactive) | > 100 µM (inactive) | > 100 µM (inactive) | 35.8 µM (inactive) | > 100 µM (inactive) | > 100 µM (inactive) | 89.3 µM (inactive) | > 100 µM (inactive) | > 100 µM (inactive) |  | > 100 µM (inactive) | 44 µM (inactive) | 92.3 µM (inactive) | > 100 µM (inactive)
C[N+]12C=CC=C1C(N1CCCC1)c1sc(-c3ccc(Cl)cc3)cc12 (stereo unspecified) | 28.6 µM (inactive) | 16.9 µM (inactive) | 16.1 µM (inactive) | 22.1 µM (inactive) | 17 µM (inactive) | 16 µM (inactive) | 17.1 µM (inactive) | 18.1 µM (inactive) | 18.2 µM (inactive) | 19.2 µM (inactive) | 16.9 µM (inactive) | 17.9 µM (inactive) |  | 10.6 µM (inactive) | 15.5 µM (inactive) | 17.4 µM (inactive) | 17.5 µM (inactive)
CNC(=O)CCC(NC(=O)OC(C)(C)C)C(=O)NC(Cc1ccc(NC(=O)CCCCC(C)=O)cc1)C(=O)NCC(=O)NC (stereo unspecified) | > 100 µM (inactive) | > 100 µM (inactive) | > 100 µM (inactive) | > 100 µM (inactive) | > 100 µM (inactive) | > 100 µM (inactive) | > 100 µM (inactive) | > 100 µM (inactive) | > 100 µM (inactive) | > 100 µM (inactive) | > 100 µM (inactive) | > 100 µM (inactive) | > 100 µM (inactive) | > 100 µM (inactive) |  | > 100 µM (inactive) | 
Cc1nc2ccc(F)cc2c2c1CCN2c1ccccc1 | 22.6 µM (inactive) | 11.9 µM (inactive) | 8.18 µM (inactive) | 17.9 µM (inactive) | 23.9 µM (inactive) | 13.8 µM (inactive) |  | 13.5 µM (inactive) | 23.7 µM (inactive) |  | 20.9 µM (inactive) | 15 µM (inactive) | 21 µM (inactive) | 23.7 µM (inactive) | 18.2 µM (inactive) | 8.51 µM (inactive) | 21.5 µM (inactive)
CC(=O)OCC12C(=O)C[C@@H](C)C3(CC(c4ccoc4)OC3=O)C1CCC(OC(C)=O)C21CO1 (stereo partly specified) | > 100 µM (inactive) | > 100 µM (inactive) | > 100 µM (inactive) | > 100 µM (inactive) | > 100 µM (inactive) | > 100 µM (inactive) | > 100 µM (inactive) | > 100 µM (inactive) | > 100 µM (inactive) | > 100 µM (inactive) | > 100 µM (inactive) | 87.3 µM (inactive) | > 100 µM (inactive) | > 100 µM (inactive) | > 100 µM (inactive) | > 100 µM (inactive) | 
CC(=O)C(C(C)=O)=C1CCCC(O)O1 (stereo unspecified) | > 100 µM (inactive) | > 100 µM (inactive) | > 100 µM (inactive) | 47.4 µM (inactive) | > 100 µM (inactive) |  | > 100 µM (inactive) | > 100 µM (inactive) | > 100 µM (inactive) | > 100 µM (inactive) | > 100 µM (inactive) | > 100 µM (inactive) | > 100 µM (inactive) | > 100 µM (inactive) | > 100 µM (inactive) | > 100 µM (inactive) | 48.5 µM (inactive)
